# Laboratory results: patent publication US20130137776A1, “METHOD FOR INHIBITING HISTONE GENE TRANSCRIPTION AND EXPRESSION” (CHINA MEDICAL UNIVERSITY, priority 2011, published 2013)
# Experiments:
# [1] = test system: histone gene transcription of the HSC-3 cancer cell line; test: Microarray analysis of gene expression in hinokitiol-treated HSC-3 cells; type: cell-based; conditions: 6.25 μM or 12.5 μM hinokitiol, 24 hours, Affymetrix Human Gene 1.0 ST microarray
# Method: (1) Cell Culture and RNA Collection
# Human oral squamous-cell carcinoma (OSCC) cell lines, such as HSC-3 (JCRB0623, Japan), was cultured. The relative culture methods can be seen in Shieh, T. M. et al., Association of expression aberrances and genetic polymorphisms of lysyl oxidase with areca-associated oral tumorigenesis. Clin Cancer Res, 2007. 13(15 Pt 1): p. 4378-85; Chen, J. C. et al., Gypenosides induced G0/G1 arrest via CHk2 and apoptosis through endoplasmic reticulum stress and mitochondria-dependent pathways in human tongue cancer SCC-4 cells. Oral Oncol, 2009. 45(3): p. 273-83; and Lin, C. C. et al., Berberine induces apoptosis in human HSC-3 oral cancer cells via simultaneous activation of the death receptor-mediated and mitochondrial pathway. Anticancer Res, 2007. 27(5A): p. 3371-8, which are entirely incorporated hereinto by reference.
# Then, the HSC-3 cell lines were divided into four groups: two groups of the cells were not treated by hinokitiol (0 μM); one group of the cells was treated by 6.25 μM hinokitiol (commercially purchased from Sigma-Aldrich company); and one group of the cells was treated by 12.5 μM hinokitiol. […] The content and purity of the obtained RNA were respectively determined at wavelengths of 260 nm and 280 nm by using a micro-volume spectrophotometer (Nanodrop ND-1000, commercially purchased from Labtech. International company). […]
# [2] = test system: histone H2B and H3 gene expression in HSC-3 cell line; test: Reverse transcription-PCR of histone H2B and H3 gene expression; type: cell-based, human; conditions: 6.25 μM, 24 hours, GAPDH internal control
# Method: HSC-3 cell lines were cultured and respectively treated by 0 μM and 6.25 μM hinokitiol for 24 hours. Then, the cells were scratched from the cell culture dishes and collected by centrifugation. Afterwards, reverse transcription-PCR (RT-PCR) was performed. The protocols and conditions related to RT-PCR can be seen in Shieh, T. M. et al., Association of expression aberrances and genetic polymorphisms of lysyl oxidase with areca-associated oral tumorigenesis. Clin Cancer Res, 2007. 13 (15 Pt1), p. 4378-85; and Shieh, T. M. et al., Association between the polymorphisms in exon 12 of hypoxia-inducible factor-1alpha and the clinicopathological features of oral squamous cell carcinoma. Oral Oncol, 2010. 46 (9), p. e47-53, which are entirely incorporated hereinto by reference.
# The gene expression level of Glyceraldehyde-3-phosphate dehydrogenase (GAPDH) was used as an internal control. The variation of the gene expression level of histone H2B and H3 in HSC3 cell lines treated by hinokitiol was compared with the control group, and the results are shown in FIG. 2. At least two independent RT-PCR experiments were performed to validate the reproducibility of the analysis.
# [3] = test system: histone H3 expression in HSC-3 cancer cell line; test: Western blotting analysis of histone H3, HSC-3 cancer cell line; type: cell-based, human; conditions: 6.25 μM and 12.5 μM, 24 hours, actin internal control
# Method: (§1) Normal human oral keratinocyte cell lines (OK, obtained from China Medical University Hospital, Taiwan), HSC-3 cancer cell lines, and SAS cancer cell lines (OSCC cancer cell line, obtained from the tongue tissue of a patient in National Yang Ming University, Taiwan) were cultured (the protocols related to cell culture can be seen in Lu, S. Y. et al., Ripe areca nut extract induces G1 phase arrests and senescence-associated phenotypes in normal human oral keratinocyte. Carcinogenesis, 2006. 27 (6), p. 1273-84; and Shieh, T. M. et al., Association of expression aberrances and genetic polymorphisms of lysyl oxidase with areca-associated oral tumorigenesis. Clin Cancer Res, 2007. 13 (15 Pt 1), p. 4378-85, which are entirely incorporated hereinto by reference). The cells were respectively treated by 0 μM, 6.25 μM, and 12.5 μM hinokitiol for 24 hours, and scratched from the cell culture dishes and collected by centrifugation. Then, western blotting analysis was performed (see Lu, S. Y. et al., Ripe areca nut extract induces G1 phase arrests and senescence-associated phenotypes in normal human oral keratinocyte. Carcinogenesis, 2006. 27 (6), p. 1273-84, which is entirely incorporated hereinto by reference). […]
# [4] = test system: histone H3 expression in SAS cancer cell line; test: Western blotting analysis of histone H3, SAS cancer cell line; type: cell-based, human; conditions: 6.25 μM and 12.5 μM, 24 hours, actin internal control
# Method: as §1
# [5] = test system: histone H3 expression in normal human oral keratinocyte cell line (OK); test: Western blotting analysis of histone H3, normal human oral keratinocyte cell line; type: cell-based; conditions: 6.25 μM and 12.5 μM, 24 hours, actin internal control
# Method: as §1
# HSC-3 cells = test: Cell cycle analysis by flow cytometry (PI staining); type: cell-based, human; conditions: 24 hours, 0 μM control 31.38%
# Method: HSC-3 cells (2×10^5/4 ml) were respectively treated by 0 μM, 3.12 μM, and 6.25 μM hinokitiol for 24 hours, washed by an ice-cold PBS buffer solution twice, and fixed in 70% ice-cold ethanol at 4° C. for 4 hours. Then, the cells were stained by propidium iodide (PI), and a cell cycle analysis was performed by using a BD FACSAria flow cytometer (commercially purchased from Becton Dickinson, Germany). The obtained data was analyzed by MULTICycle Software (commercially purchased from Coulter company, U.S.A.).
# [6] = compound of formula (I) and its salts; cited from Imai et al. 2006 and Ema et al. 2004 (rats); cited from earlier work
smiles,measurement,setting,value
CC(C)c1cccc(O)c(=O)c1 [hinokitiol],"expression of histone genes (H1d, H3g, H3j, H3a, H3h, H2bm, H2bg, H3l, H2bf, H2a) vs untreated control",[1],decreased by above two-fold
same,gene expression level of histone H2B,[2],decreased
same,gene expression level of histone H3,[2],decreased
same,expression level of histone H3,[3],significantly decreased
same,expression level of histone H3,[4],significantly decreased
same,expression level of histone H3,[5],not affected
same,proportion of the cells in the synthesis phase (S phase),HSC-3 cells; 3.125 μM hinokitiol,41.19%
same,proportion of the cells in the synthesis phase (S phase),HSC-3 cells; 6.25 μM hinokitiol,43.89%
same,biological toxicity,[6],low biological toxicity
